Assay results reported in ChEMBL document CHEMBL3400111, “Synthesis and melanogenesis evaluation of 3',4',7-trihydroxyflavanone derivatives and characterization of flavanone-BODIPY” (Bioorg Med Chem Lett, 2015).
The source made the active and inactive calls. The rule behind the calls is not given here.

What was measured:
[1] = test system: B16-F10; assay: Induction of melanin synthesis in mouse B16F10 cells after 48 hrs by fluorescence microscopy relative to control; type: functional; set-up: concentration or dose not given beside the values
[2] = test system: Mus musculus; assay: Induction of melanogenesis in C57BL/6 depigmentation mouse assessed as increase in melanin content of hair follicle on depigmented skin at 1.6 to 4.8 mg/kg, ip for 2 weeks by H&E stainig-based histomorphology; type: functional, organism-based
[3] = test system: Mus musculus; assay: Induction of melanogenesis in C57BL/6 depigmentation mouse assessed as increase in tyrosinase protein expression at 1.6 to 4.8 mg/kg, ip for 2 weeks measured on day 12 by H&E staining-based histomorphology; type: functional, organism-based
[4] = test system: Mus musculus; assay: Induction of melanogenesis in C57BL/6 depigmentation mouse assessed as increase in TRP-1 protein expression at 1.6 to 4.8 mg/kg, ip for 2 weeks measured on day 12 by H&E staining-based histomorphology; type: functional, organism-based
[5] = test system: Mus musculus; assay: Induction of melanogenesis in C57BL/6 depigmentation mouse assessed as increase in TRP-2 protein expression at 1.6 to 4.8 mg/kg, ip for 2 weeks measured on day 12 by H&E staining-based histomorphology; type: functional, organism-based
[6] = test system: Mus musculus; assay: Induction of melanogenesis in C57BL/6 depigmentation mouse assessed as increase in MITF protein expression at 1.6 to 4.8 mg/kg, ip for 2 weeks measured on day 12 by H&E staining-based histomorphology; type: functional, organism-based
[7] = test system: B16-F10; assay: Induction of melanogenesis in mouse B16F10 cells at 0.01 to 10 uM after 48 hrs by fluorescence microscopy relative to control; type: functional, cell-based
[8] = Cellular uptake in mouse B16F10 cells at 0.1 uM after 4 hrs by confocal imaging analysis in presence of 0.1 to 1 uM 3',4',7-trihydroxyflavaonone; type: ADME, cell-based; conditions: b16-f10, 4 h
[9] = Drug uptake in mouse B16F10 cell nucleus at 0.1 uM after 4 hrs by DAPI staining-based confocal imaging analysis; type: ADME; conditions: b16-f10, 4 h
[10] = Drug uptake in mouse B16F10 cell endoplasmic reticulum at 0.1 uM after 4 hrs by ER-tracker Red staining-based confocal imaging analysis; type: ADME; conditions: b16-f10, 4 h

SMILES | Activity [1] [%] | further results
CCC(=O)Oc1ccc(C2CC(=O)c3ccc(OC)cc3O2)cc1OC(=O)CC (centres undefined) | 133.65 | –
COc1ccc2c(c1)OC(c1ccc(OC(=O)c3ccc(Cl)cc3)c(OC(=O)c3ccc(Cl)cc3)c1)CC2=O (centres undefined) | 121.98 | –
COc1ccc2c(c1)OC(c1ccc(OC(C)=O)c(OC(C)=O)c1)CC2=O (centres undefined) | 132.3 | –
COc1ccc2c(c1)OC(c1ccc(OC(=O)c3ccc(F)cc3)c(OC(=O)c3ccc(F)cc3)c1)CC2=O (centres undefined) | 111.79 | –
CCCCCCCCCCCC(=O)Oc1ccc(C2CC(=O)c3ccc(OC)cc3O2)cc1OC(=O)CCCCCCCCCCC (centres undefined) | 89.54 | –
CCCCCCCCCCCC(=O)Oc1ccc(C2CC(=O)c3ccc(OC)cc3O2)cc1O (centres undefined) | 74.13 | –
COc1ccc2c(c1)OC(c1ccc(O)c(O)c1)CC2=O (centres undefined) | 110.31 | –
COc1ccc2c(c1)OC(c1ccc(OC(=O)c3ccco3)c(OC(=O)c3ccco3)c1)CC2=O (centres undefined) | 96.11 | –
COc1ccc2c(c1)OC(c1ccc(OC(=O)c3ccc(C)cc3)c(OC(=O)c3ccc(C)cc3)c1)CC2=O (centres undefined) | 113.49 | –
COc1ccc2c(c1)OC(c1ccc(O)c(O)c1)C/C2=N/O (centres undefined) | 134.71 | Activity [2]: Active; Activity [3]: Active; Activity [4]: Active; Activity [5]: Active; Activity [6]: Active
CCCCCCCCCCCCCC(=O)Oc1ccc(C2CC(=O)c3ccc(OC)cc3O2)cc1O (centres undefined) | 44.63 | –
COc1ccc2c(c1)OC(c1ccc(OS(=O)(=O)c3ccc(C)cc3)c(OS(=O)(=O)c3ccc(C)cc3)c1)CC2=O (centres undefined) | 100.52 | –
CC1=CC(C)=[N+]2C1=C(CCC(=O)N/N=C1\CC(c3ccc(O)c(O)c3)Oc3cc(O)ccc31)c1c(C)cc(C)n1[B-]2(F)F (centres undefined) | – | Activity [7]: Active; Drug uptake [8]: Not Active; Drug uptake [9]: Active; Drug uptake [10]: Active
COc1ccc2c(c1)OC(c1ccc(OC(=O)c3ccccc3Cl)c(OC(=O)c3ccccc3Cl)c1)CC2=O (centres undefined) | 119.46 | –
C=CCOc1ccc(C2CC(=O)c3ccc(OC)cc3O2)cc1OCC=C (centres undefined) | 91.19 | –
COc1ccc2c(c1)OC(c1ccc(OC(=O)c3ccccc3)c(OC(=O)c3ccccc3)c1)CC2=O (centres undefined) | 121.43 | –
